In paper PMC9774391 (ACS Omega, 2022):

What was measured:
BChE = BChE (Homo sapiens, UniProt P06276); test: biochemical; details: for inhibition at 1000 µM: 10^–3 M; for inhibition at 100 µM: 10^–4 M; for inhibition at 10 µM: 10^–5 M; for inhibition at 1 µM: 10^–6 M; for inhibition at 0.1 µM: 10^–7 M; for inhibition at 0.01 µM: 10^–8 M; for inhibition at 0.001 µM: 10^–9 M
Description: (§1) According to the modified Ellman approach outlined in our team’s earlier work, the AChE and BChE inhibitory activities of the obtained compounds were evaluated.[18]−[21]

AChE = AChE (Homo sapiens, UniProt P22303); test: biochemical; details: for inhibition at 1000 µM: 10^–3 M; for inhibition at 100 µM: 10^–4 M; for inhibition at 10 µM: 10^–5 M; for inhibition at 1 µM: 10^–6 M; for inhibition at 0.1 µM: 10^–7 M; for inhibition at 0.01 µM: 10^–8 M; for inhibition at 0.001 µM: 10^–9 M
Description: as §1

MAO-B = target: T1, MAO-B (Homo sapiens, UniProt P27338); test: In vitro MAO-B inhibition assay (fluorometric); type: biochemical; details: for inhibition at 1000 µM: 10^–3 M; for inhibition at 100 µM: 10^–4 M
T1 sequence (P27338 1-520): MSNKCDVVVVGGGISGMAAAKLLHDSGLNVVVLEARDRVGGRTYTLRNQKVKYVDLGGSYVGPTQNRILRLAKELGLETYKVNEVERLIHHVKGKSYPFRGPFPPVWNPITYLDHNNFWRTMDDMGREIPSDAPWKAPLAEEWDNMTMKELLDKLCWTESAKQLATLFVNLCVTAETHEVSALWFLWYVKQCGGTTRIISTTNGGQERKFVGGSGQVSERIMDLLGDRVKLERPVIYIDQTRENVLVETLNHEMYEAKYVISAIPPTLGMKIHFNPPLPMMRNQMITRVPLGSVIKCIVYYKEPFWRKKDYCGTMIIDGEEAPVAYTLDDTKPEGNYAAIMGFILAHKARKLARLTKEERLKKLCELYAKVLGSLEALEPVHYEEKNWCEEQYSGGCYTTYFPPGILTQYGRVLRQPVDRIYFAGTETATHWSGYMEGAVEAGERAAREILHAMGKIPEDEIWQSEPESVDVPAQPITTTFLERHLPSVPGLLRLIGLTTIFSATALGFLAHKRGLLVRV

Cytotoxicity test (MTT) = type: cell-based; details: NIH/3T3 mouse embryonic fibroblast cells (ATCC CRL-1658), NIH/3T3 mouse fibroblast healthy cell line
Description: The NIH/3T3 cells were incubated according to the manufacturer’s recommendations. In 96-well plates, NIH/3T3 cells were seeded at a density of 1 × 10^4 cells per well. The MTT test was conducted in line with the previously mentioned standards.[19],[22],[23],[28],[30]

[1] = DPPH free-radical scavenging activity assay; details: for IC50: serial dilution 10^–3–10^–9 M, read-out: IC50 on DPPH antioxidant activity
Description: This approach is based on evaluating the free-radical scavenging abilities of the stable 1,1-diphenyl-2-picrylhydrazyl (DPPH) radical. To create the DPHH solution, 9.86 mg of DPPH was weighed and diluted to 25 mL with methanol. The test wells were then filled with 100 μL of the DPPH solution and 100 μL of the test solutions. Only 200 μL of methanol was used for the blank reading, while the control reading required the usage of 100 μL each of methanol and the DPPH solution. Following incubation, a spectrophotometric measurement at 517 nm was carried out.[26],[27]

MAO-A = target: T2, MAO-A (Homo sapiens, UniProt P21397); test: In vitro MAO-A inhibition assay (fluorometric); type: biochemical; details: for inhibition at 1000 µM: 10^–3 M; for inhibition at 100 µM: 10^–4 M
T2 sequence (P21397 1-527): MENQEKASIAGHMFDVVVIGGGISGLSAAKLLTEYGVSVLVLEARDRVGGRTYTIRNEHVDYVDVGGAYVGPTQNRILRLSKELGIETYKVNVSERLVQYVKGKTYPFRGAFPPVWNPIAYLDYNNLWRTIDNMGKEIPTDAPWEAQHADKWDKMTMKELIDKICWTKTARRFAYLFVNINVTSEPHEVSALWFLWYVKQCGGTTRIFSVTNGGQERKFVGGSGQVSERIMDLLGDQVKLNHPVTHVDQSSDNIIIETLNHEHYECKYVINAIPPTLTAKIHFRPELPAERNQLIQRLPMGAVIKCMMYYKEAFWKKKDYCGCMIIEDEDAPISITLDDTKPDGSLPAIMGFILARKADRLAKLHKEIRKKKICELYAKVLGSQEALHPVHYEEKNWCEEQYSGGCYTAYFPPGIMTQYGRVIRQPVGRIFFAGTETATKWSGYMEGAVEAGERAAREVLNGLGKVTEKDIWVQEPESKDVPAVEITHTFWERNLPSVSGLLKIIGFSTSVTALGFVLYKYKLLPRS

Beta Amyloid 1–42 (Aβ42) = target: T3, Beta Amyloid 1–42 (Aβ42) (Homo sapiens, UniProt P05067); test: Beta Amyloid 1–42 (Aβ42) inhibitor screening assay; type: biochemical; details: 10^–4 M; read-out: % β-amyloid plaque inhibition
T3 construct: The Beta Amyloid 1–42 (Aβ42) Ligand Screening Assay kit; purchased BioVision, Milpitas, CA
Excerpt: The Beta Amyloid 1–42 (Aβ42) Ligand Screening Assay kit (BioVision, Milpitas, CA) technique based on the fluorometric approach served as the basis for the experimental process.[21],[28],[29]

Sequence of BChE (P06276 29-602): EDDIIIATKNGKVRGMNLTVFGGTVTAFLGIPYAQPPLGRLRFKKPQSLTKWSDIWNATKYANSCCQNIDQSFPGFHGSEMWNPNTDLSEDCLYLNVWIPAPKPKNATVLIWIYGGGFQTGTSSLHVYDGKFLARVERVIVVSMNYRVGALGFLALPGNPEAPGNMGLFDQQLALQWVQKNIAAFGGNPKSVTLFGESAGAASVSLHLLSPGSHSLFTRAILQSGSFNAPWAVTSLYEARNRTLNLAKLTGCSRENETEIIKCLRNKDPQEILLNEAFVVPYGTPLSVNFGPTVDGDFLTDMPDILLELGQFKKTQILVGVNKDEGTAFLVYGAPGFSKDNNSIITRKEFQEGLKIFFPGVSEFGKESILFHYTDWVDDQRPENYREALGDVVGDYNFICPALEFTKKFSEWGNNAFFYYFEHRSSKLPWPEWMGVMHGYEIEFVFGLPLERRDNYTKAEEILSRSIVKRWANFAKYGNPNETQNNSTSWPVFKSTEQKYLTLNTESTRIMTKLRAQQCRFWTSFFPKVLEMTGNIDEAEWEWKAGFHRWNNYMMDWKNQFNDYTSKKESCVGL
T3 sequence (P05067 672-713 limits assumed): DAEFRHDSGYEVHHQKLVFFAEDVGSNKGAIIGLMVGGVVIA
Sequence of AChE (P22303 32-614): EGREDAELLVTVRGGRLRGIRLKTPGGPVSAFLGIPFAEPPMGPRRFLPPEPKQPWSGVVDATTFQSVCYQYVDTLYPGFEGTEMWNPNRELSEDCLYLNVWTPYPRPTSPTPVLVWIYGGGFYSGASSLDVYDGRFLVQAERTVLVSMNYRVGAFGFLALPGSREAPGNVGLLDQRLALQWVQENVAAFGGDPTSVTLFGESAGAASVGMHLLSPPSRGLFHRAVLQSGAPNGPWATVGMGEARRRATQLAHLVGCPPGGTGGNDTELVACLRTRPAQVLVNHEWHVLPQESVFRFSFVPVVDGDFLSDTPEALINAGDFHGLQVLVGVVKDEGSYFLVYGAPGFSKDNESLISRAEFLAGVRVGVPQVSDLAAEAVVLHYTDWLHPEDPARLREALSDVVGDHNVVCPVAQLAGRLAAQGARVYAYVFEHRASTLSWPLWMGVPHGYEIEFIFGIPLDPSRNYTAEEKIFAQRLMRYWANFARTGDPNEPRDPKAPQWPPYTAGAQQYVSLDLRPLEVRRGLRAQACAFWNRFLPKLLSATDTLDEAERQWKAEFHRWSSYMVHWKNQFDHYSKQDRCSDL

Row | SMILES | inhibition at 1000 µM (BChE) [%] | inhibition at 100 µM (BChE) [%] | IC50 (AChE) [nM] | inhibition at 1000 µM (AChE) [%] | inhibition at 100 µM (AChE) [%] | inhibition at 10 µM (AChE) [%] | inhibition at 1 µM (AChE) [%] | inhibition at 0.1 µM (AChE) [%] | inhibition at 0.01 µM (AChE) [%] | inhibition at 0.001 µM (AChE) [%] | inhibition at 1000 µM (MAO-B) [%] | inhibition at 100 µM (MAO-B) [%] | IC50 (Cytotoxicity test (MTT)) [µM] | IC50 [1] [nM] | inhibition at 1000 µM (MAO-A) [%] | inhibition at 100 µM (MAO-A) [%] | inhibition at 100 µM (Beta Amyloid 1–42 (Aβ42)) [%] | also measured
1 | COc1cc2c(cc1OC)C(=O)/C(=C/c1ccc(NC(=O)CN3CCN(CCCN(C)C)CC3)cc1)C2 [D27] | 94.83 ± 0.731 | 35.9 ± 0.444 | 130 ± 4.2 | 91.2 ± 1.3 | 87.3 ± 1.12 | 82.1 ± 1.03 | 73.3 ± 0.994 | 41.2 ± 0.562 | 31.6 ± 0.389 | 22.5 ± 0.419 | 94.6 ± 1.02 | 43.1 ± 0.452 | 10.5 ± 0.467 | 310 ± 13 | 95.08 ± 0.687 | 44.4 ± 2.29 |  | 
2 | COc1cc2c(cc1OC)C(=O)/C(=C/c1ccc(NC(=O)CN(C)CCN(C)C)cc1)C2 [D36] | 100 ± 1.25 | 41 ± 0.608 | 235 ± 11.3 | 91.9 ± 1.47 | 86.6 ± 1.57 | 78.6 ± 1.03 | 58.8 ± 0.893 | 38.2 ± 0.539 | 33.1 ± 0.491 | 20.6 ± 0.374 | 84.6 ± 1.01 | 45.2 ± 0.584 | 3.62 ± 0.129 | 251 ± 10 | 82.4 ± 0.873 | 43 ± 0.771 |  | 
3 | O=C1O[C@H]([C@@H](O)CO)C(O)=C1O [ascorbic acid, reference compound] |  |  |  |  |  |  |  |  |  |  |  |  |  | 165 ± 7 |  |  |  | % DPPH free-radical scavenging (antioxidant) activity ([1]; 10^–3 M): 98.75% ± 1.67; % DPPH free-radical scavenging (antioxidant) activity ([1]; 10^–4 M): 95.22% ± 1.47
4 | COc1ccc2c(c1)C/C(=C\c1ccc(NC(=O)CN3CCN(CCCO)CC3)cc1)C2=O [D19] | 83.5 ± 1.37 | 32.5 ± 0.337 | 32.4 ± 1.2 | 95.2 ± 1.65 | 92.7 ± 1.25 | 89.2 ± 1.08 | 82.1 ± 0.988 | 70.7 ± 1.07 | 33.6 ± 0.624 | 20.6 ± 0.596 | 90.2 ± 1.46 | 43.2 ± 0.877 | 10.5 ± 0.517 | 362 ± 15 | 60.9 ± 1.86 | 25.3 ± 0.632 |  | % DPPH free-radical scavenging activity ([1]; concentration not stated in the sentence (Figure 6)): ≥ 90%
5 | COc1ccc2c(c1)C(=O)/C(=C/c1ccc(NC(=O)CN(C)CCN(C)C)cc1)C2 [D35] | 90.2 ± 1.39 |  | 215 ± 8.8 | 95.7 ± 1.2 | 91.7 ± 1.47 | 73.2 ± 1.12 | 61.8 ± 1.08 | 42.9 ± 0.628 | 33.6 ± 0.52 | 21.5 ± 0.448 | 90.7 ± 1.25 | 42.5 ± 0.547 | 53.9 ± 1.22 | 238 ± 11 | 88.46 ± 0.758 | 21.7 ± 0.623 |  | IC50 (BChE): 151 ± 4.8 nM; inhibition at 10 µM (BChE): 74.6 ± 1.13%; inhibition at 1 µM (BChE): 65.9 ± 1.01%; inhibition at 0.1 µM (BChE): 54.9 ± 0.974%; inhibition at 0.01 µM (BChE): 33.4 ± 0.814%; inhibition at 0.001 µM (BChE): 18 ± 0.411%
6 | COc1ccc2c(c1)C(=O)/C(=C/c1ccc(NC(=O)CN(C)CCCN(C)C)cc1)C2 [D38] | 93.3 ± 1.37 | 90.6 ± 1.3 | 47.3 ± 1.6 | 93.2 ± 1.72 | 90.5 ± 1.3 | 81.6 ± 1.17 | 74 ± 0.956 | 68.2 ± 0.862 | 37.2 ± 0.562 | 19.7 ± 0.711 | 94.8 ± 1.43 | 88.6 ± 1.38 | 6.81 ± 0.118 | 190 ± 7.8 | 95 ± 2.39 | 24.1 ± 0.853 | > 50 | IC50 (BChE): 78.2 ± 2.9 nM; inhibition at 10 µM (BChE): 85.4 ± 1.3%; inhibition at 1 µM (BChE): 78.6 ± 1.11%; inhibition at 0.1 µM (BChE): 58.7 ± 0.952%; inhibition at 0.01 µM (BChE): 28.8 ± 0.714%; inhibition at 0.001 µM (BChE): 18.4 ± 0.633%; IC50 (MAO-B): 35.9 ± 1.3 nM; inhibition at 10 µM (MAO-B; 10^–5 M): 84.6 ± 1.58%; inhibition at 1 µM (MAO-B; 10^–6 M): 78.2 ± 1.41%; inhibition at 0.1 µM (MAO-B; 10^–7 M): 62.5 ± 0.925%; inhibition at 0.01 µM (MAO-B; 10^–8 M): 42.3 ± 0.623%; inhibition at 0.001 µM (MAO-B; 10^–9 M): 20.7 ± 0.318%
7 | COc1cc2c(cc1OC)C(=O)/C(=C/c1ccc(NC(=O)CN3CCN(CCCO)CC3)cc1)C2 [D21] | 99.7 ± 2.82 | 40.6 ± 0.978 | 29.2 ± 0.8 | 95.7 ± 1.2 | 91.7 ± 1.47 | 87.3 ± 1.3 | 81.8 ± 1.1 | 70.6 ± 1 | 38.3 ± 0.678 | 19.3 ± 0.593 | 93.5 ± 1.38 | 46.2 ± 0.587 | 39.5 ± 1.82 |  | 91.2 ± 1.21 | 26.9 ± 0.541 | > 50 | 
8 | O=C(O)CC(O)(CC(=O)O)C(=O)O [citric acid, reference compound] |  |  |  |  |  |  |  |  |  |  |  |  |  | 194 ± 9 |  |  |  | % DPPH free-radical scavenging (antioxidant) activity ([1]; 10^–3 M): 99.48% ± 1.45; % DPPH free-radical scavenging (antioxidant) activity ([1]; 10^–4 M): 94.26% ± 1.37
9 | COc1ccc2c(c1)C(=O)/C(=C/c1ccc(NC(=O)CN3CCN(CCN(C)C)CC3)cc1)C2 [D23] | 99 ± 1.68 | 41.5 ± 0.741 | 51 ± 1.4 | 92.5 ± 1.57 | 87.6 ± 1.68 | 82.4 ± 1.21 | 70.1 ± 1.06 | 68.9 ± 0.945 | 35.5 ± 0.518 | 20.6 ± 0.418 | 81.3 ± 1.05 | 43.2 ± 0.884 | 2.15 ± 0.127 |  | 78.2 ± 0.969 | 22.9 ± 0.497 | > 50 | 
10 | COc1ccc2c(c1)C/C(=C\c1ccc(NC(=O)CN(C)CCN(C)C)cc1)C2=O [D34] | 91.6 ± 1.03 |  | 191 ± 8.7 | 98.3 ± 1.11 | 91.1 ± 1.36 | 76 ± 1.12 | 63.4 ± 0.985 | 41.2 ± 0.528 | 32.5 ± 0.588 | 23.5 ± 0.429 | 78.5 ± 1.31 | 47.3 ± 0.676 | 75.5 ± 2.18 | 302 ± 14 | 82.1 ± 1.25 | 38.3 ± 0.458 |  | IC50 (BChE): 132 ± 5.1 nM; inhibition at 10 µM (BChE): 76.3 ± 1.14%; inhibition at 1 µM (BChE): 71.9 ± 1.01%; inhibition at 0.1 µM (BChE): 49.7 ± 0.856%; inhibition at 0.01 µM (BChE): 31.5 ± 0.405%; inhibition at 0.001 µM (BChE): 20.5 ± 0.399%
11 | COc1ccc2c(c1)C(=O)/C(=C/c1ccc(NC(=O)CN3CCN(CCCO)CC3)cc1)C2 [D20] | 82.6 ± 1.05 | 20.1 ± 0.277 | 31.1 ± 1.1 | 98.3 ± 1.11 | 91.1 ± 1.36 | 86.3 ± 1.25 | 77.2 ± 0.975 | 68.26 ± 0.633 | 40.2 ± 0.528 | 21.1 ± 0.429 | 83.6 ± 1.04 | 41.6 ± 0.508 | 20 ± 1 |  | 81.86 ± 0.243 | 43.29 ± 0.429 | > 50 | 
